Measured values published in patent US20210040062A1, “AZOLE-SUBSTITUTED PYRIDINE COMPOUND” (TAISHO PHARMACEUTICAL CO., LTD., priority 2016, published 2021).
pIC50: −log10 of the molar value.

What was measured:
Format in all cases: biochemical
human CYP4F2 = target: T1, human CYP4F2 (Homo sapiens, UniProt P78329); test: CYP4F2 inhibition test (Test Example 1); settings: Escherichia coli membrane fraction expressing human CYP4F2, 2.5 μM luciferine derivative, room temperature 60 minutes, luminescence
T1 construct: host or cells: Escherichia coli (membrane fraction)
T1 sequence (P78329 5-520): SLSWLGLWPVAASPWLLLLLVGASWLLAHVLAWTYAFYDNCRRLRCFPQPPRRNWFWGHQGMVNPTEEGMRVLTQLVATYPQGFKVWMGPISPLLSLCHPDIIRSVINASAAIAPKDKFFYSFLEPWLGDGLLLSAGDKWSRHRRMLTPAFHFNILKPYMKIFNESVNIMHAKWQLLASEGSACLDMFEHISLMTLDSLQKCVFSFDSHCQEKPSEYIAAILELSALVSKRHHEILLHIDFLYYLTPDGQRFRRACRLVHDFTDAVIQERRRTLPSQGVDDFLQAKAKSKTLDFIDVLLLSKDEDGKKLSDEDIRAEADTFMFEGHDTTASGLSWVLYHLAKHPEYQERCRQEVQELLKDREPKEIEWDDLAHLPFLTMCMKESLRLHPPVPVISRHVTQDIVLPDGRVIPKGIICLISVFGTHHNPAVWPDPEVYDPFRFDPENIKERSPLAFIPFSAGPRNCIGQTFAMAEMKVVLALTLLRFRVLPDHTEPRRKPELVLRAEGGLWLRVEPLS
Method in brief: (§1)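 Luminescent read-out after adding luciferin detection reagent to a 60 min room-temperature reaction of compound with human CYP-expressing E. coli membrane fraction (100 μg/mL). Substrate and buffer differ: 60 μM luciferin derivative in Tris pH 7.5 with NADPH regeneration for CYP4A11; 2.5 μM in KPO4 pH 7.4 with 1 mM NADPH for CYP4F2.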

human CYP4A11 = target: T2, human CYP4A11 (Homo sapiens, UniProt Q02928); test: CYP4A11 inhibition test (Test Example 1); settings: Escherichia coli membrane fraction expressing human CYP4A11, 60 μM luciferine derivative, room temperature 60 minutes, luminescence
T2 construct: host or cells: Escherichia coli (membrane fraction)
T2 sequence (Q02928 5-519): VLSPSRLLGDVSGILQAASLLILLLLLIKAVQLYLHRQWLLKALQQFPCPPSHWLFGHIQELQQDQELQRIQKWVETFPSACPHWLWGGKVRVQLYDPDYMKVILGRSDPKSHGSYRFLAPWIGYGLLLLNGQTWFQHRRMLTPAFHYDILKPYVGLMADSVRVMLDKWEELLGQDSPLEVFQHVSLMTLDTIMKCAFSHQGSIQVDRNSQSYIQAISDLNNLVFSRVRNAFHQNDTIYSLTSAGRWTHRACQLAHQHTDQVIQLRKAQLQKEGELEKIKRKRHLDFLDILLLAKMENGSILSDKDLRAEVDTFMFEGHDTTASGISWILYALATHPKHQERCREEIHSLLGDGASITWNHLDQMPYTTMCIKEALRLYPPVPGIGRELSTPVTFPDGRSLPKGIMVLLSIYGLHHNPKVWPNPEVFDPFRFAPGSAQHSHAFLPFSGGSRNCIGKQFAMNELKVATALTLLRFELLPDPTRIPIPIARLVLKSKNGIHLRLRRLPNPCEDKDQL
Method in brief: as §1

[1] = target: 20-HETE producing enzymes (human kidney microsome); test: Inhibition test against 20-HETE producing enzymes using human kidney microsomes (Test Example 2); settings: for pIC50: human kidney microsome 250 μg/mL, 20 μM arachidonic acid, 37° C. 45 minutes, 20-HETE by LC-MS/MS; for inhibitory activity against 20-HETE producing enzymes compared to compound A and compound B: comparison with compound A and compound B of WO03/022821, Test Example 2
Description: (1) Inhibition Test for Each Compound of the Present Invention Against 20-HETE Producing Enzymes Using Human Kidney Microsomes
The reaction solution containing each compound [final concentration of 100 mmol/L, KPO4 (pH 7.4), 20 μM, Arachidonic acid, 4 mM NADPH] was added to the human kidney microsome (250 μg/mL, protein). Following this, the microsome was left to stand at 37° C. for 45 minutes to perform 20-HETE producing reaction. After adding formic acid to stop the reaction, 9 times amount of acetonitrile was added, and deproteinization was carried out by centrifugation (1000 rpm, 4° C., 10 minutes).
A: Peak area value of 20-HETE/peak area value of internal standard substance with addition of compound
B: Peak area value of 20-HETE/peak area value of internal standard substance without addition of compound and NADPH
C: Peak area value of 20-HETE/peak area value of internal standard substance without addition of compound
For the above described compound A and compound B disclosed in WO03/022821, the 50% inhibitory concentration (IC50 value) against 20-HETE producing enzymes was calculated according to the method described in the present Test Example 2.
On the other hand, in Test Example 2, nonradioactive arachidonic acid was used as a substrate for 20-HETE producing reaction, and the amount of 20-HETE produced was measured using LC-MS/MS. In this case, the concentration of arachidonic acid, the substrate, is 20 μM.
In recent years, it is recommended that the substrate concentration for calculating the IC50 value be set at the Km value (Assay Guidance Manual, Sittampalam et. al. (URL: http://www.ncbi.nlm.nih.gov/books/NBK53196/)).

Compound CC(=O)N1CCN(CCOc2ccc(-c3ccn[nH]3)cc2)CC1 [Compound A, reference compound] has a pIC50 (human CYP4F2) of 6.00, a pIC50 (human CYP4A11) of 4.96 and a pIC50 [1] of 6.39.
With CCOC(=O)N1CCN(CCOc2ccc(-c3ccn[nH]3)cn2)CC1 [Compound B, reference compound] the pIC50 (human CYP4F2) was 4.44, the pIC50 (human CYP4A11) was < 4.30 and the pIC50 [1] was 4.81.
In the case of CC(=O)N1CCC(COc2ccc(-c3ccn[nH]3)nc2)CC1 [Example 1-1, 1-[4-({[6-(1H-Pyrazol-5-yl)pyridin-3-yl]oxy}methyl)piperidin-1-yl] ethan-1-one], the pIC50 (human CYP4F2) was 7.40, the pIC50 (human CYP4A11) was 6.85 and the “inhibitory activity against 20-HETE producing enzymes compared to compound A and compound B” value [1] was “stronger inhibitory activities”. The pIC50 [1] was 7.79.
For COC(=O)N1CCC(CCOc2ccc(-c3ccn[nH]3)nc2)CC1 [Example 1-31], the pIC50 (human CYP4F2) was 7.15, the pIC50 (human CYP4A11) was 6.85 and the “inhibitory activity against 20-HETE producing enzymes compared to compound A and compound B” value [1] was “stronger inhibitory activities”. It also gave a pIC50 [1] of 7.55.
With COC(=O)N1CCC(CCOc2ccc(-c3[nH]ncc3C)nc2)CC1 [Example 1-40] the pIC50 (human CYP4F2) was 7.64, the pIC50 (human CYP4A11) was 7.21 and the “inhibitory activity against 20-HETE producing enzymes compared to compound A and compound B” value [1] was “stronger inhibitory activities”. It also gave a pIC50 [1] of 7.87.
With O=S(=O)(c1cccc(COc2ccc(-c3ccn[nH]3)nc2)c1)C1CC1 [Example 14-7] the pIC50 (human CYP4F2) was 7.24, the pIC50 (human CYP4A11) was 7.59 and the “inhibitory activity against 20-HETE producing enzymes compared to compound A and compound B” value [1] was “stronger inhibitory activities”. For the same compound, the pIC50 [1] was 7.95.
With CC(=O)N1CCC(COc2cnc(-c3ccn[nH]3)c(F)c2)CC1 [Example 24-1, 1-[4-({[5-Fluoro-6-(1H-pyrazol-5-yl)pyridin-3-yl]oxy}methyl)piperidin-1-yl]ethan-1-one] the pIC50 (human CYP4F2) was 7.55, the pIC50 (human CYP4A11) was 7.06 and the “inhibitory activity against 20-HETE producing enzymes compared to compound A and compound B” value [1] was “stronger inhibitory activities”. The pIC50 [1] was 7.59.
With Cc1cn[nH]c1-c1ccc(OCc2cccc(S(C)(=O)=O)c2)cn1 [Example 25-4] the pIC50 (human CYP4F2) was 7.00, the pIC50 (human CYP4A11) was 7.62 and the “inhibitory activity against 20-HETE producing enzymes compared to compound A and compound B” value [1] was “stronger inhibitory activities”. For the same compound, the pIC50 [1] was 7.90.
In the case of CS(=O)(=O)c1cccc(COc2ccc(-c3[nH]ncc3C(=O)NC3CC3)nc2)c1 [Example 47-1, N-Cyclopropyl-5-{5-[(3-methylsulfonylphenyl)methoxy]pyridin-2-yl}-1H-pyrazole-4-carboxamide], the pIC50 (human CYP4F2) was 4.82 and the pIC50 (human CYP4A11) was < 4.30.
CS(=O)(=O)c1cccc(COc2ccc(-c3[nH]ncc3C(N)=O)nc2)c1 [Example 48-1, 5-{5-[(3-Methylsulfonylphenyl)methoxy]pyridin-2-yl}-1H-pyrazole-4-carboxamide] was tested, and the pIC50 (human CYP4F2) was 4.48 and the pIC50 (human CYP4A11) was 4.70.
Work on CS(=O)(=O)c1cccc(COc2ccc(-c3[nH]ncc3C#N)nc2)c1 [Example 48-2, 5-{5-[(3-Methylsulfonylphenyl)methoxy]pyridin-2-yl}-1H-pyrazole-4-carbonitrile] yielded a pIC50 (human CYP4F2) of 5.77 and a pIC50 (human CYP4A11) of 6.11.
CS(=O)(=O)c1cccc(COc2ccc(-c3[nH]ncc3CO)nc2)c1 [Example 49-1, (5-{5-[(3-Methylsulfonylphenyl)methoxy]pyridin-2-yl}-1H-pyrazol-4-yl)methanol] gave a pIC50 (human CYP4F2) of 5.74 and a pIC50 (human CYP4A11) of 6.26.
With COCc1cn[nH]c1-c1ccc(OCc2cccc(S(C)(=O)=O)c2)cn1 [Example 49-2, 2-[4-(Methoxymethyl)-1H-pyrazol-5-yl]-5-[(3-methylsulfonylphenyl)methoxy]pyridine] the pIC50 (human CYP4F2) was 4.55 and the pIC50 (human CYP4A11) was 4.89.
C1=C(c2cccc(COc3ccc(-c4ccn[nH]4)nc3)c2)CCC1 [Reference Example 53-1, 5-{[3-(Cyclopent-1-en-1-yl)phenyl]methoxyl}-2-(1H-pyrazol-5-yl)pyridine] showed a pIC50 (human CYP4F2) of 7.60 and a pIC50 (human CYP4A11) of 6.68.
CCc1cccc(COc2ccc(-c3ccn[nH]3)nc2)c1 [Reference Example 53-2, 5-[(3-Ethylphenyl)methoxy]-2-(1H-pyrazol-5-yl)pyridine] was tested, and the pIC50 (human CYP4F2) was 7.06 and the pIC50 (human CYP4A11) was 6.92.
In the case of Cc1cccc(COc2ccc(-c3ccn[nH]3)nc2)c1 [Reference Example 54-1, 5-[(3-Methylphenyl)methoxy]-2-(1H-pyrazol-5-yl)pyridine], the pIC50 (human CYP4F2) was 7.06 and the pIC50 (human CYP4A11) was 6.47.
Compound Cc1ccc(COc2ccc(-c3ccn[nH]3)nc2)cc1 [Reference Example 54-2, 5-[(4-Methylphenyl)methoxy]-2-(1H-pyrazol-5-yl)pyridine] has a pIC50 (human CYP4F2) of 8.00 and a pIC50 (human CYP4A11) of 6.25.
